Assay results from patent US20260022142A1, “MACROCYCLIC IMMUNOMODULATORS” (Bristol-Myers Squibb Company, priority 2022, published 2026).
Numbered stars: 1 amine (or outer) side, 2 acyl side, 3 side chain; on linkers, the order of the positions; unused ones are H or OH. Bridge positions count the residues as written; N and C are the ends. Square brackets hold non-standard residues; d marks the D form. Peptide text beside a SMILES is read from it. * marks the point of attachment. ξ: configuration not given here. Phe(3,4,5-F3) = N[C@@H](Cc1cc(F)c(F)c(F)c1)C(=O)O; Ala(morpholin-4-yl) = N[C@@H](CN1CCOCC1)C(=O)O; Phe(4-COOH) = N[C@@H](Cc1ccc(C(=O)O)cc1)C(=O)O; Bip = N[C@@H](Cc1ccc(-c2ccccc2)cc1)C(=O)O; NH(CH2)14COOH = O=C(O)CCCCCCCCCCCCCCN*; Phe(3-Me) = Cc1cccc(C[C@H](N)C(=O)O)c1; γGlu = O=C(O)[C@H](CCC(=O)[*:2])N[*:1]; Val(3-OH) = CC(C)(O)[C@H](N)C(=O)O; Aha = [N-]=[N+]=NCC[C@H](N)C(=O)O; 4Pal = N[C@@H](Cc1ccncc1)C(=O)O; 3Thi = N[C@@H](Cc1ccsc1)C(=O)O; Cha = N[C@@H](CC1CCCCC1)C(=O)O; Cit = NC(=O)NCCC[C@H](N)C(=O)O; Gly(cPr) = N[C@H](C(=O)O)C1CC1; dCha = N[C@H](CC1CCCCC1)C(=O)O; Thr(3ξ) = CC(O)[C@H](N)C(=O)O; Carboxymethyl = O=C(O)C*; Orn = NCCC[C@H](N)C(=O)O; Aun = NCCCCCCCCCCC(=O)O; Dab = NCC[C@H](N)C(=O)O; Dap = NC[C@H](N)C(=O)O; AEEA = NCCOCCOCC(=O)O

biological target: T1, PD-1/PD-L1 interaction (PE-labeled human PD-L1-Ig binding to Jurkat cell line over-expressing human PD-1) (Homo sapiens, UniProt Q15116); test: Jurkat-PD-1 Cell Binding High-Content Screening Assay (CBA); type: cell-based; conditions: Jurkat cell line over-expressing human PD-1; PE-labeled PD-L1-Ig 20 nM final; read-out: Jurkat hPD1-PDL1 IC50
T1 construct: expressed in transfected cells; host or cells: Jurkat
T1 sequence (Q15116 25-288): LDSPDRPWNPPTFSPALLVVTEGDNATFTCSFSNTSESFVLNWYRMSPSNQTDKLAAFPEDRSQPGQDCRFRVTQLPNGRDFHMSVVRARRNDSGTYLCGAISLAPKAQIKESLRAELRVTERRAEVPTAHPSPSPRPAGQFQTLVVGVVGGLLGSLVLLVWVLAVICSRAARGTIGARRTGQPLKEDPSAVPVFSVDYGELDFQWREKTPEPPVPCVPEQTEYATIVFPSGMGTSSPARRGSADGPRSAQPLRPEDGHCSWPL
In short: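 Jurkat cells stably over-expressing human PD-1 were seeded in DMEM with 10% fetal calf serum and pre-incubated with compound for 2 h at 37° C. PE-labeled human PD-L1-Ig was then added at 20 nM final for 1 hour, after which cells were fixed with paraformaldehyde, Hoechst-stained and imaged by high-content microscopy.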

| IC50 [nM] | Structure (SMILES) |
| --- | --- |
| 18.2 | Cc1cccc(C[C@@H]2NC(=O)[C@H](CC(=O)O)NC(=O)[C@H](Cc3ccc(OCC(=O)O)cc3)NC(=O)[C@H](Cc3ccncc3)NC(=O)CSC[C@@H](C(=O)N[C@@H](CCN)C(=O)NCCCCCCCCCCC(=O)O)NC(=O)[C@H](CO)NC(=O)[C@H](C(C)(C)O)NC(=O)[C@H](CC3CCCCC3)NC(=O)[C@H](CCN)NC(=O)[C@@H](CC(C)C)NC(=O)[C@H](CCCN)NC(=O)[C@H](Cc3ccc(OCC(=O)O)cc3)NC(=O)[C@H](Cc3ccc(-c4ccccc4)cc3)NC(=O)[C@H](C3CC3)NC2=O)c1 [Compound 2189] ({CH2CO}-[4Pal]Y(Carboxymethyl)D[Phe(3-Me)][Gly(cPr)][Bip]Y(Carboxymethyl)[Orn][dL][Dab][Cha][Val(3-OH)]SC[Dab][Aun]-OH; thioether N-14) |
| 98.7 | CC(C)C[C@H]1NC(=O)[C@H](CCN)NC(=O)[C@H](C(C)C)NC(=O)[C@H](Cc2ccc(-c3ccccc3)cc2)NC(=O)[C@H](C(C)C)NC(=O)[C@H](Cc2c[nH]c3ccccc23)NC(=O)[C@H](CC(=O)O)NC(=O)[C@H](Cc2ccc(OCC(=O)O)cc2)NC(=O)[C@H](Cc2ccsc2)NC(=O)CSC[C@@H](C(=O)N[C@@H](CCCN)C(=O)NCCCCCCCCCCC(=O)O)NC(=O)[C@H](C(C)O)NC(=O)[C@H](C(C)C)NC(=O)[C@H](CC2CCCCC2)NC(=O)[C@H](CCN)NC1=O (stereo partly drawn) [Compound 3281] ({CH2CO}-[3Thi]Y(Carboxymethyl)DWV[Bip]V[Dab][dL][Dab][Cha]V[Thr(3ξ)]C[Orn][Aun]-OH; thioether N-14) |
| 36.3 | Cc1cccc(C[C@@H]2NC(=O)[C@H](CC(=O)O)NC(=O)[C@H](Cc3ccc(OCC(=O)O)cc3)NC(=O)[C@H](CN)NC(=O)CSC[C@@H](C(=O)N[C@@H](CCN)C(=O)NCCOCCOCC(=O)NCCCCCCCCCCC(=O)O)NC(=O)[C@H](CN)NC(=O)[C@H](C(C)C)NC(=O)[C@H](CC3CCCCC3)NC(=O)[C@H](CCN)NC(=O)[C@@H](CC3CCCCC3)NC(=O)[C@H](CCCN)NC(=O)[C@H](C(C)C)NC(=O)[C@H](Cc3ccc(-c4ccccc4)cc3)NC(=O)[C@H](C(C)C)NC2=O)c1 [Compound 2684] ({CH2CO}-[Dap]Y(Carboxymethyl)D[Phe(3-Me)]V[Bip]V[Orn][dCha][Dab][Cha]V[Dap]C[Dab][AEEA][Aun]-OH; thioether N-14) |
| 15.1 | CC(C)C[C@H]1NC(=O)[C@H](CCCN)NC(=O)[C@H](C(C)C)NC(=O)[C@H](Cc2ccc(-c3ccccc3)cc2)NC(=O)[C@H](C(C)C)NC(=O)[C@H](Cc2c[nH]c3ccccc23)NC(=O)[C@H](CC(=O)O)NC(=O)[C@H](Cc2ccc(OCC(=O)O)cc2)NC(=O)[C@H](C(C)O)NC(=O)CSC[C@@H](C(=O)N[C@@H](CCN)C(=O)NCCOCCOCC(=O)N[C@@H](CCC(=O)NCCCCCCCCCCC(=O)O)C(=O)O)NC(=O)[C@H](CN)NC(=O)[C@H](C(C)O)NC(=O)[C@H](CC2CCCCC2)NC(=O)[C@H](CCN)NC1=O (stereo partly drawn) [Compound 3662] ({CH2CO}-[Thr(3ξ)]Y(Carboxymethyl)DWV[Bip]V[Orn][dL][Dab][Cha][Thr(3ξ)][Dap]C[Dab][AEEA][γGlu][Aun]-OH; thioether N-14) |
| 56.3 | Cc1cccc(C[C@@H]2NC(=O)[C@H](CC(=O)O)NC(=O)[C@H](Cc3ccc(C(=O)O)cc3)NC(=O)[C@H](CCCN)NC(=O)CSC[C@@H](C(=O)N[C@@H](CCN)C(=O)NCCOCCOCC(=O)NCCOCCOCC(=O)N[C@@H](CCC(=O)O)C(=O)N[C@@H](CC(=O)NCCCCCCCCCCCCCCC(=O)O)C(=O)O)NC(=O)[C@H](Cc3cnc[nH]3)NC(=O)[C@H](C(C)(C)O)NC(=O)[C@H](CC3CCCCC3)NC(=O)[C@H](CCN)NC(=O)[C@@H](CC(C)C)NC(=O)[C@H](CCCN)NC(=O)[C@H](Cc3ccc(C(=O)O)cc3)NC(=O)[C@H](Cc3ccc(-c4ccccc4)cc3)NC(=O)[C@H](Cc3ccc(C(=O)O)cc3)NC2=O)c1 [Compound 3887] ({CH2CO}-[Orn][Phe(4-COOH)]D[Phe(3-Me)][Phe(4-COOH)][Bip][Phe(4-COOH)][Orn][dL][Dab][Cha][Val(3-OH)]HC[Dab][AEEA][AEEA]ED(NH(CH2)14COOH)-OH; thioether N-14) |
| 39.8 | CC(C)C[C@@H]1NC(=O)[C@H](Cc2c[nH]c3ccccc23)NC(=O)[C@H](CC(=O)O)NC(=O)[C@H](Cc2ccc(C(=O)O)cc2)NC(=O)[C@H](Cc2ccc(OCC(=O)O)cc2)NC(=O)CSC[C@@H](C(=O)N[C@@H](CCN)C(=O)NCCCCCCCCCCC(=O)O)NC(=O)[C@H](CCCNC(N)=O)NC(=O)[C@H](C(C)C)NC(=O)[C@H](CC2CCCCC2)NC(=O)[C@H](CCN)NC(=O)[C@@H](CC(C)C)NC(=O)[C@H](CCCN)NC(=O)[C@H](Cc2ccc(O)cc2)NC(=O)[C@H](Cc2ccc(-c3ccccc3)cc2)NC1=O [Compound 1234] ({CH2CO}-Y(Carboxymethyl)[Phe(4-COOH)]DWL[Bip]Y[Orn][dL][Dab][Cha]V[Cit]C[Dab][Aun]-OH; thioether N-14) |
| 5.8 | Cc1cccc(C[C@@H]2NC(=O)[C@H](CC(=O)O)NC(=O)[C@H](Cc3ccc(OCC(=O)O)cc3)NC(=O)[C@H](CCCNC(=N)N)NC(=O)CSC[C@@H](C(=O)NCCOCCOCC(=O)NCCCCCCCCCCC(=O)O)NC(=O)[C@H](CCC(N)=O)NC(=O)[C@H](C(C)C)NC(=O)[C@H](CC3CCCCC3)NC(=O)[C@H](CCN)NC(=O)[C@@H](CC(C)C)NC(=O)[C@H](CCN)NC(=O)[C@H](Cc3ccc(O)cc3)NC(=O)[C@H](Cc3ccc(-c4ccccc4)cc3)NC(=O)[C@H](C(C)C)NC2=O)c1 [Compound 3398] ({CH2CO}-RY(Carboxymethyl)D[Phe(3-Me)]V[Bip]Y[Dab][dL][Dab][Cha]VQC[AEEA][Aun]-OH; thioether N-14) |
| 14.3 | CC(C)C[C@H]1NC(=O)[C@H](CCCN)NC(=O)[C@H](C(C)C)NC(=O)[C@H](Cc2ccc(-c3ccccc3)cc2)NC(=O)[C@H](C(C)C)NC(=O)[C@H](Cc2c[nH]c3ccccc23)NC(=O)[C@H](CC(=O)O)NC(=O)[C@H](Cc2ccc(OCC(=O)O)cc2)NC(=O)[C@H](CN)NC(=O)CSC[C@@H](C(=O)NCCOCCOCC(=O)N[C@H](CCCCN)C(=O)NCCCCCCCCCCC(=O)O)NC(=O)[C@H]([C@@H](C)O)NC(=O)[C@H](C(C)C)NC(=O)[C@H](CC2CCCCC2)NC(=O)[C@H](Cc2cnc[nH]2)NC1=O [Compound 1131] ({CH2CO}-[Dap]Y(Carboxymethyl)DWV[Bip]V[Orn][dL]H[Cha]VTC[AEEA][dK][Aun]-OH; thioether N-14) |
| 15.6 | Cc1cccc(C[C@@H]2NC(=O)[C@H](CC(=O)O)NC(=O)[C@H](Cc3ccc(OCC(=O)O)cc3)NC(=O)[C@H](CN)NC(=O)CSC[C@@H](C(=O)N[C@@H](CCCCN)C(=O)NCCCCCCCCCCC(=O)O)NC(=O)[C@H](CCCN)NC(=O)[C@H](C(C)C)NC(=O)[C@H](CC3CCCCC3)NC(=O)[C@H](CCN)NC(=O)[C@@H](CC3CCCCC3)NC(=O)[C@H](CCCN)NC(=O)[C@H](C(C)C)NC(=O)[C@H](Cc3ccc(-c4ccccc4)cc3)NC(=O)[C@H](C(C)C)NC2=O)c1 [Compound 2688] ({CH2CO}-[Dap]Y(Carboxymethyl)D[Phe(3-Me)]V[Bip]V[Orn][dCha][Dab][Cha]V[Orn]CK[Aun]-OH; thioether N-14) |
| 4.7 | Cc1cccc(C[C@@H]2NC(=O)[C@H](CC(=O)O)NC(=O)[C@H](Cc3ccc(OCC(=O)O)cc3)NC(=O)[C@H](CN3CCOCC3)NC(=O)CSC[C@@H](C(=O)N[C@@H](CCN)C(=O)N[C@@H](CCN=[N+]=[N-])C(=O)NCCCCCCCCCCC(=O)O)NC(=O)[C@H](CO)NC(=O)[C@H](C(C)(C)O)NC(=O)[C@H](CC3CCCCC3)NC(=O)[C@H](CCN)NC(=O)[C@@H](CC(C)C)NC(=O)[C@H](CCCN)NC(=O)[C@H](Cc3ccc(OCC(=O)O)cc3)NC(=O)[C@H](Cc3ccc(-c4ccccc4)cc3)NC(=O)[C@H](Cc3ccc(OCC(=O)O)cc3)NC2=O)c1 [Compound 1281] ({CH2CO}-[Ala(morpholin-4-yl)]Y(Carboxymethyl)D[Phe(3-Me)]Y(Carboxymethyl)[Bip]Y(Carboxymethyl)[Orn][dL][Dab][Cha][Val(3-OH)]SC[Dab][Aha][Aun]-OH; thioether N-14) |
| 10.9 | Cc1cccc(C[C@@H]2NC(=O)[C@H](CC(=O)O)NC(=O)[C@H](Cc3ccc(OCC(=O)O)cc3)NC(=O)[C@H](C(C)O)NC(=O)CSC[C@@H](C(=O)N[C@H](CC(N)=O)C(=O)NCCOCCOCC(=O)NCCCCCCCCCCC(=O)O)NC(=O)[C@H](CO)NC(=O)[C@H](C(C)C)NC(=O)[C@H](CC3CCCCC3)NC(=O)[C@H](CCN)NC(=O)[C@@H](CC(C)C)NC(=O)[C@H](CCCN)NC(=O)[C@H](C(C)C)NC(=O)[C@H](Cc3ccc(-c4ccccc4)cc3)NC(=O)[C@H](C(C)C)NC2=O)c1 (stereo partly drawn) [Compound 3254] ({CH2CO}-[Thr(3ξ)]Y(Carboxymethyl)D[Phe(3-Me)]V[Bip]V[Orn][dL][Dab][Cha]VSC[dN][AEEA][Aun]-OH; thioether N-14) |
| 78.4 | CC(C)C[C@H]1NC(=O)[C@H](CCCN)NC(=O)[C@H](Cc2ccc(OCC(=O)O)cc2)NC(=O)[C@H](Cc2ccc(-c3ccccc3)cc2)NC(=O)[C@H](Cc2ccc(OCC(=O)O)cc2)NC(=O)[C@H](Cc2cc(F)c(F)c(F)c2)NC(=O)[C@H](CC(=O)O)NC(=O)[C@H](Cc2ccc(OCC(=O)O)cc2)NC(=O)[C@H](Cc2ccncc2)NC(=O)CSC[C@@H](C(=O)N[C@@H](CCN)C(=O)NCCCCCCCCCCC(=O)O)NC(=O)[C@H](CO)NC(=O)[C@H](C(C)(C)O)NC(=O)[C@H](CC2CCCCC2)NC(=O)[C@H](CCN)NC1=O [Compound 2201] ({CH2CO}-[4Pal]Y(Carboxymethyl)D[Phe(3,4,5-F3)]Y(Carboxymethyl)[Bip]Y(Carboxymethyl)[Orn][dL][Dab][Cha][Val(3-OH)]SC[Dab][Aun]-OH; thioether N-14) |
